Reference: PubChem BioAssay (NCI)
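Exposure lasted 48 hours, with cells grown in 96-well plates and compounds tested at five concentrations. TGI: total growth inhibition.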

Experiments:
Experiment in all cases: growth of human tumour cells (NCI), 48 h
DU-145 prostate = tested on: DU-145 prostate
K-562 leukemia = tested on: K-562 leukemia
SK-MEL-2 melanoma = tested on: SK-MEL-2 melanoma
SF-295 CNS = tested on: SF-295 CNS
NCI-H460 lung = tested on: NCI-H460 lung
HT29 colon = tested on: HT29 colon
SNB-19 CNS = tested on: SNB-19 CNS
COLO 205 colon = tested on: COLO 205 colon
MDA-MB-231 breast = tested on: MDA-MB-231 breast
MCF7 breast = tested on: MCF7 breast
IGROV1 ovarian = tested on: IGROV1 ovarian
HL-60(TB) leukemia = tested on: HL-60(TB) leukemia
A498 renal = tested on: A498 renal
SR leukemia = tested on: SR leukemia
HOP-92 NSCLC = tested on: HOP-92 NSCLC
NCI-H226 lung = tested on: NCI-H226 lung
OVCAR-5 ovarian = tested on: OVCAR-5 ovarian
RPMI-8226 leukemia = tested on: RPMI-8226 leukemia
SK-MEL-5 melanoma = tested on: SK-MEL-5 melanoma
HCT-15 colon = tested on: HCT-15 colon
CCRF-CEM leukemia = tested on: CCRF-CEM leukemia
TK-10 renal = tested on: TK-10 renal
RXF 393 renal = tested on: RXF 393 renal
SF-268 CNS = tested on: SF-268 CNS
M14 melanoma = tested on: M14 melanoma
SN12C renal = tested on: SN12C renal
MDA-N = tested on: MDA-N
KM12 colon = tested on: KM12 colon
SK-MEL-28 melanoma = tested on: SK-MEL-28 melanoma
HOP-62 NSCLC = tested on: HOP-62 NSCLC
HCC-2998 colon = tested on: HCC-2998 colon
A549 NSCLC = tested on: A549 NSCLC
MOLT-4 leukemia = tested on: MOLT-4 leukemia
786-0 renal = tested on: 786-0 renal
OVCAR-3 ovarian = tested on: OVCAR-3 ovarian
BT-549 breast = tested on: BT-549 breast
MDA-MB-435 = tested on: MDA-MB-435
PC-3 prostate = tested on: PC-3 prostate
HS 578T breast = tested on: HS 578T breast
MALME-3M melanoma = tested on: MALME-3M melanoma
UACC-62 melanoma = tested on: UACC-62 melanoma
EKVX NSCLC = tested on: EKVX NSCLC
OVCAR-8 ovarian = tested on: OVCAR-8 ovarian
SF-539 CNS = tested on: SF-539 CNS
SK-OV-3 ovarian = tested on: SK-OV-3 ovarian
UO-31 renal = tested on: UO-31 renal
OVCAR-4 ovarian = tested on: OVCAR-4 ovarian
HCT-116 colon = tested on: HCT-116 colon
SW-620 colon = tested on: SW-620 colon
ACHN renal = tested on: ACHN renal
SNB-75 CNS = tested on: SNB-75 CNS
T-47D breast = tested on: T-47D breast
NCI-H522 lung = tested on: NCI-H522 lung
CAKI-1 renal = tested on: CAKI-1 renal
LOX IMVI melanoma = tested on: LOX IMVI melanoma
U251 CNS = tested on: U251 CNS
UACC-257 melanoma = tested on: UACC-257 melanoma
NCI/ADR-RES ovarian = tested on: NCI/ADR-RES ovarian
NCI-H23 lung = tested on: NCI-H23 lung

Measured: TGI

O=S(=O)(O)c1ccc2c(N=Nc3cccc4ccccc34)c(O)c(S(=O)(=O)O)cc2c1
> 100 µM: DU-145 prostate | K-562 leukemia | SK-MEL-2 melanoma | SF-295 CNS | NCI-H460 lung | HT29 colon | SNB-19 CNS | COLO 205 colon | MDA-MB-231 breast | MCF7 breast | IGROV1 ovarian | HL-60(TB) leukemia | A498 renal | SR leukemia | HOP-92 NSCLC | NCI-H226 lung | OVCAR-5 ovarian | RPMI-8226 leukemia | SK-MEL-5 melanoma | HCT-15 colon | CCRF-CEM leukemia | TK-10 renal | RXF 393 renal | SF-268 CNS | M14 melanoma | SN12C renal | MDA-N | KM12 colon | SK-MEL-28 melanoma | HOP-62 NSCLC | HCC-2998 colon | A549 NSCLC | MOLT-4 leukemia | 786-0 renal | OVCAR-3 ovarian | BT-549 breast | MDA-MB-435 | PC-3 prostate | HS 578T breast | MALME-3M melanoma | UACC-62 melanoma | EKVX NSCLC | OVCAR-8 ovarian | SF-539 CNS | SK-OV-3 ovarian | UO-31 renal | OVCAR-4 ovarian | HCT-116 colon | SW-620 colon | ACHN renal | SNB-75 CNS | T-47D breast | NCI-H522 lung | CAKI-1 renal | LOX IMVI melanoma | U251 CNS | UACC-257 melanoma | NCI/ADR-RES ovarian | NCI-H23 lung

O=c1[nH]c2cc(Cl)ccc2nc1/C(=N/Nc1ccccc1)C(O)c1ccco1 (stereo not drawn)
> 100 µM: DU-145 prostate | K-562 leukemia | SK-MEL-2 melanoma | SF-295 CNS | NCI-H460 lung | HT29 colon | SNB-19 CNS | COLO 205 colon | MDA-MB-231 breast | MCF7 breast | IGROV1 ovarian | HL-60(TB) leukemia | A498 renal | SR leukemia | HOP-92 NSCLC | NCI-H226 lung | OVCAR-5 ovarian | RPMI-8226 leukemia | SK-MEL-5 melanoma | HCT-15 colon | CCRF-CEM leukemia | TK-10 renal | RXF 393 renal | SF-268 CNS | M14 melanoma | SN12C renal | MDA-N | KM12 colon | SK-MEL-28 melanoma | HOP-62 NSCLC | HCC-2998 colon | A549 NSCLC | MOLT-4 leukemia | 786-0 renal | OVCAR-3 ovarian | BT-549 breast | MDA-MB-435 | PC-3 prostate | HS 578T breast | MALME-3M melanoma | UACC-62 melanoma | EKVX NSCLC | OVCAR-8 ovarian | SF-539 CNS | SK-OV-3 ovarian | UO-31 renal | OVCAR-4 ovarian | HCT-116 colon | SW-620 colon | ACHN renal | SNB-75 CNS | T-47D breast | NCI-H522 lung | CAKI-1 renal | LOX IMVI melanoma | U251 CNS | UACC-257 melanoma | NCI/ADR-RES ovarian | NCI-H23 lung
